Reference: PMC10579241, “Impact of trifluoromethyl and sulfonyl groups on the biological activity of novel aryl-urea derivatives: synthesis, in-vitro, in-silico and SAR studies” (Scientific Reports, 2023)
Marks after values point to notes of the source that are not given here.

Assays:
[1] = system: human lung carcinoma (A549); experiment: cells; format: cell-based; settings: 48 h
colon cancer (HCT116) = experiment: cells; format: cell-based; settings: Homo sapiens, 48 h
prostate cancer (PC3) = experiment: cells; format: cell-based; settings: Homo sapiens, 48 h
skin cancer (A431) = experiment: cells; format: cell-based; settings: Homo sapiens, 48 h
[2] = system: hepatocellular carcinoma cell line (HePG2); experiment: cells; format: cell-based; settings: Homo sapiens, 48 h
[3] = system: osteosarcoma cell line (HOS); experiment: cells; format: cell-based; settings: Homo sapiens, 48 h
[4] = system: pancreatic cancer cell line (PACA2); experiment: cells; format: cell-based; settings: Homo sapiens, 48 h
in vitro = format: cell-based; settings: human, BJ1 normal skin fibroblast cells, 100 μg/mL
[5] = system: normal skin fibroblast cell line (BJ1); experiment: cells; format: cell-based; settings: Homo sapiens, Skin fibroblast, MTT, 48 h
PALB2 = experiment: qRT-PCR, PALB2 in PACA2 cells; format: cell-based, human; settings: versus negative untreated sample
CDKN2A = experiment: qRT-PCR, CDKN2A in PACA2 cells; format: cell-based, human; settings: versus negative untreated sample
BRCA1 = experiment: qRT-PCR, BRCA1 in PC3 cells; format: cell-based, human; settings: versus negative samples
BRCA2 = experiment: qRT-PCR, BRCA2 in PC3 cells; format: cell-based, human; settings: versus negative samples
EGFR = experiment: qRT-PCR, EGFR in A549 cells; format: cell-based, human; settings: versus negative samples
KRAS = experiment: qRT-PCR, KRAS in A549 cells; format: cell-based, human; settings: versus negative samples
TP53 = experiment: qRT-PCR, TP53 in HCT116 cells; format: cell-based, human; settings: versus negative samples
Experimental: RNA was extracted from pancreas, prostate, lung and liver cell lines using a total RNA purification kit (Qiagen, Hilden, Germany) according to the manufacturer's instructions. An aliquot of RNA was diluted in RNase-free water to estimate RNA quantity. Aliquots were used immediately for reverse transcription (RT). cDNA synthesis was performed on extracted RNA, which was treated with DNase (Invitrogen, Germany) to remove any possible DNA contamination. The DNase-treated RNA was reverse transcribed into first-strand cDNA using the RevertAid First Strand cDNA Synthesis kit (Fermantas) according to the manufacturer's instructions. Determination of the pancreas, prostate, lung and liver cell line cDNA copy number was carried out using StepOne™ Real-Time PCR System from Applied Biosystems (Thermo Fisher Scientific, Waltham, MA USA). Gene expressions were detected by real-time PCR, which was performed using the Rotor-Gene Q system (Qiagen Company). A 25 µL reaction mixture consisted of 12.5 µL SYBR® Premix Ex TaqTM (TaKaRa, Biotech. Co. Ltd.), 0.5 µL of each primer (10 PMole) (Table 1), 1 µL cDNA (50 ng) and 10.5 µL RNase free water. The optimum amplification conditions were chosen empirically according to each tested gene. Generally, the amplification conditions include initial incubation (95.0 °C for 3 min), then 40 cycles of amplification with denaturation (95.0 °C for 15 s), annealing (55.0 °C for 30 s) and extension (72.0 °C for 30 s) steps then 71 cycles which started at 60.0 °C and then increased about 0.5 °C every 10 s up to 95.0 °C. Mean cycle threshold (Ct) values of triplicate samples are used for analysis. The Ct value indicates the fractional cycle number at which the amount of amplified target reaches a fixed threshold. Data from real-time PCR were analyzed using 2^−∆∆Ct method[38]–[40]. Data were represented as the fold change in target gene expression normalized to a House-Keeping gene (HKG) and relative to the control. β-actin was used as a HKG to normalize input RNA amount, RNA quality and reverse transcription efficiency.

FASN = experiment: qRT-PCR, FASN in HCT116 cells; format: cell-based, human; settings: versus negative samples
PACA2 [6] = experiment: DNA damage, comet assay, PACA2; format: cell-based, human
PC3 [7] = experiment: DNA damage, comet assay, PC3; format: cell-based, human
A549 [8] = experiment: DNA damage, comet assay, A549; format: cell-based, human; settings: of 400 cells analyzed
HCT116 [9] = experiment: DNA damage, comet assay, HCT116; format: cell-based, human
PACA2 [10] = experiment: DNA fragmentation assay, PACA2; format: cell-based, human
PC3 [11] = experiment: DNA fragmentation assay, PC3; format: cell-based, human
A549 [12] = experiment: DNA fragmentation assay, A549; format: cell-based, human
HCT116 [13] = experiment: DNA fragmentation assay, HCT116; format: cell-based, human

COc1cccc2c1C(=O)c1c(O)c3c(c(O)c1C2=O)C[C@@](O)(C(=O)CO)C[C@@H]3O[C@H]1C[C@H](N)[C@H](O)[C@H](C)O1 [Doxorubicin, reference compound]
mortality at 100 µg/mL ([1]; 100 μg/mL): 100% | IC50 ([1]; MTT): 52.1 ± 0.28 µM | mortality at 100 µg/mL (colon cancer (HCT116); HCT-116, 100 μg/mL): 100% | IC50 (colon cancer (HCT116); HCT-116, MTT): 69.2 ± 0.1 µM | mortality at 100 µg/mL (prostate cancer (PC3); 100 μg/mL): 100% | IC50 (prostate cancer (PC3); MTT): 43.8 ± 0.47 µM | mortality at 100 µg/mL (skin cancer (A431); A-431, 100 μg/mL): 100% | IC50 (skin cancer (A431); A-431, MTT): 45.8 ± 0.15 µM | mortality at 100 µg/mL ([2]; 100 μg/mL): 100% | IC50 ([2]; MTT): 39.7 ± 0.18 µM | mortality at 100 µg/mL ([3]; 100 μg/mL): 100% | IC50 ([3]; MTT): 24.3 ± 0.24 µM | mortality at 100 µg/mL ([4]; PaCa-2, 100 μg/mL): 100% | IC50 ([4]; PaCa-2, MTT): 52.1 ± 0.19 µM | mortality at 48 h, 100 µg/mL (in vitro): 100% | IC50 [5]: 24.8 ± 0.52 µM | PALB2 gene expression level (PALB2): significantly reduced | CDKN2A gene expression level (CDKN2A): significantly reduced | BRCA1 gene expression level (BRCA1): decreased significantly | BRCA2 gene expression level (BRCA2): decreased significantly | EGFR gene expression level (EGFR): significant reduction | KRAS gene expression level (KRAS): significant reduction | TP53 gene expression level (TP53): suppression | FASN gene expression level (FASN): suppression | DNA damaged cells % (mean ± SEM) (PACA2 [6]): 20.25 ± 0.75^a % | Class 1 (tail length < diameter of nucleus), number of cells (PACA2 [6]; of 400 cells analyzed): 28 | Class 2 (tail length between 1 and 2 × the diameter of nucleus), number of cells (PACA2 [6]; of 400 cells analyzed): 26 | Class 3 (tail length > 2 × the diameter of nucleus), number of cells (PACA2 [6]; of 400 cells analyzed): 27 | No. of cells, Comets (PACA2 [6]; of 400 cells analyzed): 81 | DNA damaged cells % (mean ± SEM) (PC3 [7]): 20.76 ± 1.38^b % | Class 0 (no tail), number of cells (PC3 [7]; of 400 cells analyzed): 317 | Class 1 (tail length < diameter of nucleus), number of cells (PC3 [7]; of 400 cells analyzed): 39 | Class 2 (tail length between 1 and 2 × the diameter of nucleus), number of cells (PC3 [7]; of 400 cells analyzed): 30 | Class 3 (tail length > 2 × the diameter of nucleus), number of cells (PC3 [7]; of 400 cells analyzed): 14 | No. of cells, Comets (PC3 [7]; of 400 cells analyzed): 83 | Class 0 (no tail), number of cells (A549 [8]): 314 | Class 1 (tail length < diameter of nucleus), number of cells (A549 [8]): 25 | Class 2 (tail length between 1 and 2 × the diameter of nucleus), number of cells (A549 [8]): 32 | Class 3 (tail length > 2 × the diameter of nucleus), number of cells (A549 [8]): 29 | No. of cells, Comets (A549 [8]): 86 | DNA damaged cells % (mean ± SEM) (HCT116 [9]): 21.26 ± 0.48^ab % | Class 0 (no tail), number of cells (HCT116 [9]; of 400 cells analyzed): 315 | Class 1 (tail length < diameter of nucleus), number of cells (HCT116 [9]; of 400 cells analyzed): 33 | Class 2 (tail length between 1 and 2 × the diameter of nucleus), number of cells (HCT116 [9]; of 400 cells analyzed): 24 | Class 3 (tail length > 2 × the diameter of nucleus), number of cells (HCT116 [9]; of 400 cells analyzed): 28 | No. of cells, Comets (HCT116 [9]; of 400 cells analyzed): 85 | Change (DNA fragmentation versus untreated cells) (PACA2 [10]): 18.00 | DNA fragmentation % M ± SEM (PACA2 [10]; IC50 concentration, 24 h): 30.1 ± 0.62^b % | Inhibition (PACA2 [10]; doxorubicin = 0.0): 0.0 | Change (DNA fragmentation versus untreated cells) (PC3 [11]): 20.1 | DNA fragmentation % M ± SEM (PC3 [11]; IC50 concentration, 24 h): 31.7 ± 0.85^b % | Inhibition (PC3 [11]; doxorubicin = 0.0): 0.0 | Change (DNA fragmentation versus untreated cells) (A549 [12]): 19.5 | DNA fragmentation % M ± SEM (A549 [12]; IC50 concentration, 24 h): 30.9 ± 1.64^a % | Inhibition (A549 [12]; doxorubicin = 0.0): 0.0 | Change (DNA fragmentation versus untreated cells) (HCT116 [13]): 21.00 | Inhibition (HCT116 [13]; doxorubicin = 0.00): 0.00
